# What was measured:
# Type in all cases: in vivo, human
# participants with SSc-RP [1] = assay: Average pain score recorded during weekly RP attacks (11-point Likert scale); settings: Tadalafil 5 mg (n = 4); Table G
# From the text: The absolute change in average pain score (11-point Likert scale) of weekly RP attacks from baseline to the end of each Dosing Period will be a secondary outcome variable. The sponsor-developed participant-informed diary will be used to record data. The average pain score of weekly RP attacks is defined as the total pain scores divided by total number of RP attacks within the last 7 days of each dosing period. Average of the last 7 days of screening assessments will be used as baseline for the analysis of all periods. The variable will be calculated similar to frequency data as before.
# participants with SSc-RP [2] = assay: SHAQ - Visual Analog Scale - Raynaud's
# From the text: The SHAQ includes a Raynaud's VAS, which will be reported at screening and each in-clinic visit. The absolute change in Raynaud-VAS, assessed by the participants response to the SHAQ question ‘In the past 7 days, how much have your Raynaud's interfered with your daily activities?’ at baseline and the end of each dosing period will be calculated similar to frequency data as before.
# The standard, validated, patient reported outcome measures tool for SSc patients, the SHAQ, was collected at the time points specified in the study schedules (FIG. 2 and FIGS. 4A and 4B) to assess the participant's quality of life. The SHAQ included a Raynaud's VAS that will also be reported separately.
# participants with SSc-RP [3] = assay: Average duration of weekly RP attacks (minutes), patient diary; settings: Tadalafil 5 mg
# From the text: The absolute change in average duration of weekly RP attacks from baseline to the end of each dosing period was and will be a secondary outcome variable. The sponsor-developed participant-informed diary was and will be used to record data. Average duration of weekly RP attacks is defined as the total duration of RP attacks divided by total number of RP attacks within the last 7 days of each dosing period. Total duration of RP attacks during the last 7 days of screening period divided by the total number of RP attacks will be used as baseline for the analysis of all periods. The variable will be calculated similar to frequency data as before.
# [4] = Excluding Outliers, ITT Population - Part A, last 7 days of dosing period
# [5] = by Baseline RCS, second RCS subgroup of table (not named), ITT Population - Part A
# [6] = excluding outliers, 2nd baseline RCS subgroup, ITT Part A
# [7] = last 7 days of dosing period, ITT Part A
compound,measurement,setting,value
CN1CC(=O)N2[C@H](c3ccc4c(c3)OCO4)c3[nH]c4ccccc4c3C[C@@H]2C1=O [Tadalafil],Average Pain Score Change From Baseline [Mean (SD)],participants with SSc-RP [1],0.37
same,"SHAQ Visual Analogue Scale - Raynaud's, Change from Baseline, Median","participants with SSc-RP [2]; Tadalafil 5 mg (N = 5), Day 12, PP Population, Part A",−0.500
same,VAS Raynaud's Change from Baseline Max,participants with SSc-RP [2]; tadalafil 5 mg,−0.10
same,VAS Raynaud's Change from Baseline Mean,participants with SSc-RP [2]; tadalafil 5 mg,−0.825
same,VAS Raynaud's Change from Baseline Median,participants with SSc-RP [2]; tadalafil 5 mg,−0.500
same,VAS Raynaud's Change from Baseline Min,participants with SSc-RP [2]; tadalafil 5 mg,−2.20
same,VAS Raynaud's Change from Baseline Q1,participants with SSc-RP [2]; tadalafil 5 mg,−1.500
same,VAS Raynaud's Change from Baseline Q3,participants with SSc-RP [2]; tadalafil 5 mg,−0.150
same,VAS Raynaud's Day 12 Max,participants with SSc-RP [2]; tadalafil 5 mg,9.20
same,VAS Raynaud's Day 12 Median,participants with SSc-RP [2]; tadalafil 5 mg,5.200
same,VAS Raynaud's Day 12 Min,participants with SSc-RP [2]; tadalafil 5 mg,0.20
same,VAS Raynaud's Day 12 Q1,participants with SSc-RP [2]; tadalafil 5 mg,2.200
same,VAS Raynaud's Day 12 Q3,participants with SSc-RP [2]; tadalafil 5 mg,7.700
same,VAS Raynaud's Percent Change from Baseline Max,participants with SSc-RP [2]; tadalafil 5 mg,−3.1%
same,VAS Raynaud's Percent Change from Baseline Mean,participants with SSc-RP [2]; tadalafil 5 mg,−19.71%
same,VAS Raynaud's Percent Change from Baseline Median,participants with SSc-RP [2]; tadalafil 5 mg,−20.67%
same,VAS Raynaud's Percent Change from Baseline Min,participants with SSc-RP [2]; tadalafil 5 mg,−34.4%
same,VAS Raynaud's Percent Change from Baseline Q1,participants with SSc-RP [2]; tadalafil 5 mg,−33.85%
same,VAS Raynaud's Percent Change from Baseline Q3,participants with SSc-RP [2]; tadalafil 5 mg,−5.56%
same,"Average Duration of Weekly RP Attacks (All Attacks), Mean",participants with SSc-RP [3]; [4],5.95 min
same,"Average Duration of Weekly RP Attacks (All Attacks), Median",participants with SSc-RP [3]; [4],5.95 min
same,"Change from Baseline in average duration of weekly symptomatic RP attacks, Mean",participants with SSc-RP [3]; [5],140.74 min
same,"Change from Baseline in average duration of weekly symptomatic RP attacks, Median",participants with SSc-RP [3]; [5],140.74 min
same,"Percent Change from Baseline in average duration of weekly symptomatic RP attacks, Mean",participants with SSc-RP [3]; [5],5.21%
same,"Percent Change from Baseline in average duration of weekly symptomatic RP attacks, Median",participants with SSc-RP [3]; [5],5.21%
same,"Average duration of weekly RP attacks, Change from Baseline, Mean",participants with SSc-RP [3]; [6],-4.98 min
same,"Average duration of weekly RP attacks, Change from Baseline, Median",participants with SSc-RP [3]; [6],-4.98 min
same,"Average duration of weekly RP attacks, Percent Change from Baseline, Mean",participants with SSc-RP [3]; [6],−45.55%
same,"Average duration of weekly RP attacks, Percent Change from Baseline, Median",participants with SSc-RP [3]; [6],−45.55%
same,"Average Duration of weekly symptomatic RP attacks, Mean",participants with SSc-RP [3]; [7],412.29 min
same,"Average Duration of weekly symptomatic RP attacks, Median",participants with SSc-RP [3]; [7],412.29 min
